PubChem BioAssay (NCI)
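Values below derive from 48-hour exposures of cells grown in 96-well plates, with endpoints linearly interpolated between the two concentrations bracketing the appropriate inhibition level. At the TGI there is no net growth.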

Columns and labels:
Test in all cases: NCI anticancer screen, dose series, 48 h
[1] = system: 786-0 renal
[2] = system: A498 renal
[3] = system: A549 NSCLC
[4] = system: ACHN renal
[5] = system: BT-549 breast
[6] = system: CAKI-1 renal
[7] = system: CCRF-CEM leukemia
[8] = system: COLO 205 colon
[9] = system: DU-145 prostate
[10] = system: EKVX NSCLC
[11] = system: HCC-2998 colon
[12] = system: HCT-116 colon
[13] = system: HCT-15 colon
[14] = system: HL-60(TB) leukemia
[15] = system: HOP-62 NSCLC
[16] = system: HOP-92 NSCLC
[17] = system: HS 578T breast
[18] = system: HT29 colon
[19] = system: IGROV1 ovarian
[20] = system: KM12 colon
[21] = system: LOX IMVI melanoma
[22] = system: M14 melanoma
[23] = system: MALME-3M melanoma
[24] = system: MCF7 breast
[25] = system: MDA-MB-231 breast
[26] = system: MDA-MB-435
[27] = system: MDA-N
[28] = system: MOLT-4 leukemia
[29] = system: NCI-H226 lung
[30] = system: NCI-H23 lung
[31] = system: NCI-H460 lung
[32] = system: NCI-H522 lung
[33] = system: NCI/ADR-RES ovarian
[34] = system: OVCAR-3 ovarian
[35] = system: OVCAR-4 ovarian
[36] = system: OVCAR-5 ovarian
[37] = system: OVCAR-8 ovarian
[38] = system: RXF 393 renal
[39] = system: SF-268 CNS
[40] = system: SF-295 CNS
[41] = system: SF-539 CNS
[42] = system: SK-MEL-2 melanoma
[43] = system: SK-MEL-28 melanoma
[44] = system: SK-MEL-5 melanoma
[45] = system: SN12C renal
[46] = system: SNB-19 CNS
[47] = system: SNB-75 CNS
[48] = system: SW-620 colon
[49] = system: T-47D breast
[50] = system: TK-10 renal
[51] = system: U251 CNS
[52] = system: UACC-257 melanoma
[53] = system: UACC-62 melanoma
[54] = system: UO-31 renal
[55] = system: PC-3 prostate
[56] = system: SK-OV-3 ovarian
[57] = system: K-562 leukemia
[58] = system: RPMI-8226 leukemia
[59] = system: SR leukemia

Measured: TGI

COc1cc(Nc2nc3cc(C(F)(F)F)ccc3nc2C(=O)O)cc(OC)c1OC
70.3 µM: [25]
85 µM: [16]
70.2 µM: [38]
67.8 µM: [40]
90.8 µM: [7]
38.9 µM: [42]
99 µM: [6]
not listed: [55] | [56] | [57] | [58] | [59]
> 100 µM: all other assays above

COc1ccc(/C=C/c2cnccn2)cc1OC
not listed: [7] | [14] | [28] | [57] | [58] | [59]
> 10 µM: all other assays above

Cc1[nH]n(-c2nc(O)c(-c3ccccc3)c(=O)[nH]2)c(=O)c1CCO
not listed: [11] | [15] | [21] | [34]
> 100 µM: all other assays above

S=C1NCCN1C(=S)Nc1ccccc1
58 µM: [38]
not listed: [46] | [55] | [58]
> 100 µM: all other assays above
